Data from US12622917B2, “High-activity Wnt pathway inhibitor compound” (ADLAI NORTYE BIOPHARMA CO., LTD., priority 2020, dated 2026).

How the values were obtained:
Type in all cases: cell-based
Colo205 = assay: Proliferation inhibition, Wnt mutant cell line Colo205; settings: Homo sapiens, COLO 205; Colo205, Wnt pathway-dependent, 96 hours; read-out: Antiproliferative IC50 Colo205
From the text: (§1) The cell lines used in the experiment are Colo205 and DU4475 cell lines whose Wnt pathway is continuously activated and whose proliferation is Wnt pathway-dependent; while the BELA and RKO cell lines, whose Wnt pathway is not activated under normal circumstances and the proliferation is independent of Wnt pathway, as control cell lines. It is Judged that the inhibitory effect of the compound of the present invention on Wnt-dependent proliferation is not caused by other non-specific toxicity.
(§2) Treat the Colo205, Du4475, HELA and RKO cell lines cultured in their respective mediums in the logarithmic growth phase, collect the cells and prepare a uniform cell suspension of known concentration, and then add it to the 96-well cell culture plate Cell suspension, so that each well contains 1000 cells. Put it into a 5% CO2 incubator and incubate at 37° C. for 20-24 h. On the second day, the fully dissolved, 3-fold serially diluted compound was added to each cell culture well, so that the final maximum concentration in the cell culture well was 20 uM, and the culture was continued for 96 hours. In this test, Promega's cell viability detection test is used for detection. The more the cells proliferate, the stronger the final signal intensity will be. The detection instrument is SpectraMax, full wavelength mode. The wells only added with DMSO were used as positive control wells, and the wells that were not inoculated with cells were used as negative control wells. […] The IC50 value of cell proliferation inhibition was used to evaluate the inhibitory effect of the compound on the Wnt pathway and the toxic effect on normal cells (Table 2).

RKO = assay: Proliferation inhibition, non-Wnt mutant control cell line RKO; settings: Homo sapiens, Wnt-independent control cell line, 96 hours, read-out: Antiproliferative IC50 RKO
From the text: as §1, §2

[1] = system: Colo205-LUC-TCF/LEF M1 reporter cell line (Wnt pathway); assay: Colo205-LUC-TCF/LEF M1 reporter gene (luciferase) inhibition; settings: 4 hours incubation, luciferase readout
From the text: Colo205 cell line (Cell Bank of Chinese Academy of Sciences, Cat #TCHu102) was purchased from the Cell Bank of Chinese Academy of Sciences. After expansion and subculture, in the exponential growth phase of the cells, transfection with lipo3000 liposome transfection with TCF/LEF transcription factors Driven luciferase reporter plasmid (Promega). […] The plasmid carries a resistance gene for resistance screening. Transfection was carried out in 10 cm culture dishes using conventional complete medium without resistance. After 2 days, the medium with resistance was replaced, and the culture was continued. After that, the resistant medium was replaced every 2 days, and the suspended cells were discarded. The original medium was centrifuged to remove cells and debris and retained as an adaptive medium. When the cells covered the culture dish, the cells were digested, counted, and passaged in a 96-well plate, so that the average number of cells contained in each well was 1.5/well, and the adaptive medium was used for passage. The rest of the cells were frozen. After subculture, culture for 4 hours to allow the cells to adhere to the wall, and then observe the number of cells in each well under a microscope. Wells with only 1 cell per well were labeled as monoclonal wells. Afterwards, normal culture was performed, and the culture medium was replaced every 2 days, and observed. There are holes where the monoclonal cells continue to grow in the early stage, and they are labeled twice, and can be replaced with normal resistant medium. When a monoclonal well was overgrown with a 96-well plate, it is digested and passaged to a 24-well culture plate. After the 24-well plate is overgrown, it is passaged to a 96-well plate and a 6-well plate. The cells in a 96-well plate are at least 6 wells, of which 3 wells were added with known Wnt inhibitors, and the other 3 wells were not treated. After 24 hours, the cells in the 96-well plate were added with a fluorescence detection reagent to detect the fluorescence intensity. Cell lines with fluorescent expression when not treated and decreased fluorescent light after inhibition were selected and further cultured. The Colo205-LUC-TCF/LEF-M1 cell line is one of the cell lines screened above. Its growth curve, cell shape, and cell growth state are similar to those of the original Colo205 cells, and the ratio of the fluorescent signals of the inhibitor-treated and untreated cells is the largest among all cell lines, and the ratio can reach 4-5 times when inhibited at 4 hours, which was completely suitable for the screening of Wnt inhibitors in the later stage.
The Colo205-LUC-TCF/LEF M1 cell line is a reporter tool cell stably transfected with the pGL4.49-LUC2-TCF/LEF vector. The β-catenin Wnt pathway is continuously activated. After adding the inhibitor, the Wnt pathway is inhibited. The expression of firefly luciferase regulated by the[…] cis-element decreased, and after adding the detection substrate, the detected light signal decreased accordingly, so as to detect the inhibitory effect of the compound.
To a 96-well cell culture plate, add 100 uL of the compound with a maximum concentration of 20 uM to each well, and make a 3-fold serial dilution of the compound concentration. Then 10,000 colo205 cells stably transfected with the reporter gene and 100 uL medium were inoculated into each well, and corresponding positive and negative control wells were made at the same time. Put the cells in a 5% CO2 incubator and incubate at 37° C. for 4 hours. After 4 hours, remove the culture medium, add 100 uL of reagent (Promega) containing the corresponding firefly luciferase substrate to each well, and measure the activity of luciferase reporter gene. Luminescence intensity was read with SpectraMax in full wavelength mode. […]

Row | Compound | IC50 (Colo205) [nM] | IC50 (RKO) [nM] | IC50 [1] [nM]
1 | C[C@H](O)[C@@]1(C)C(=O)N2CCCc3nc(NCc4ccc(Oc5ccc(C(F)(F)F)nc5)nc4)nc(c32)N1C [239 (W427)] | 28.3 | > 10000 | 36
2 | CN1c2nc(NCc3ccc(Oc4ccc(C(F)(F)F)nc4)nc3)nc3c2N(CCC3)C(=O)C12CCOCC2 [216 (W352)] | 39 | > 10000 | –
3 | C[C@H]1CN(C)c2nc(NCc3ccc(CCC(F)(F)F)nc3)nc3ccn1c23 [Example 20, (S)-4,6-dimethyl-N-((6-(3,3,3-trifluoropropyl)pyridin-3-yl)methyl)-5,6-dihydro-4H-pyrrole And[3,2,1-de]pteridin-2-amine] | – | – | 93
4 | COCC[C@H]1C(=O)N2CCCc3nc(NCc4ccc(Oc5cnc(C(F)(F)F)nc5)nc4)nc(c32)N1C [211 (W390)] | 23 | > 10000 | 43
5 | C[C@H]1C(=O)N2CCCc3nc(NCc4ccc(Oc5ccc(C6CC6)nc5)nc4)nc(c32)N1C [137 (W335), (S)-2-(((6-((6-cyclopropylpyridin-3-yl)oxo)pyridin-3-yl)methyl)amino)-4,5-dimethyl-4,5,9,10-tetrahydro-6H,8H-pyrido[3,2,1-de]pteridin-6-one] | 138 | > 10000 | –
6 | COCCC1C(=O)N2CCCc3nc(NCc4ccc(Oc5cnc(C(F)(F)F)nc5)nc4)nc(c32)N1C (stereo not drawn) [210 (W371)] | 60 | > 10000 | –
7 | [2H]C([2H])([2H])N1c2nc(NCc3ccc(Oc4cnc(C(F)(F)F)nc4)nc3)nc3c2N(CCC3)C(=O)[C@]1(C)CO [221 (W399)] | 43 | > 10000 | –
8 | CN1c2nc(NCc3ccc(Oc4cnc(C(F)(F)F)nc4)nc3)nc3c2N(CCC3)C(=O)C12CCOCC2 [217 (W359)] | 57 | > 10000 | –
9 | C[C@H]1C(=O)N2CCCc3nc(NCc4cnn(Cc5ccc(C(F)(F)F)nc5)c4)nc(c32)N1C [Example 1, (S)-4,5-dimethyl-2-(((1-((6-(trifluoromethyl)pyridine-3-yl)methyl)-1H-pyrazol-4-yl)methyl)amino)-4,5,9,10-tetrahydro-6H,8H-pyrido[3,2,1-de]pteridin-6-one] | – | – | 83
10 | COCC[C@@H]1C(=O)N2CCCc3nc(NCc4ccc(Oc5ccc(C(F)(F)F)nc5)nc4)nc(c32)N1C [215 (W391)] | 53 | > 10000 | –
11 | CN1c2nc(NCc3ccc(Oc4cnc(C(F)(F)F)nc4)nc3)nc3c2N(CCC3)C(=O)C12CC2 [175 (W327)] | – | – | 28
12 | CN1c2nc(NCc3ccc(Oc4cc(C(F)(F)F)nn4C)nc3)nc3c2N(CCC3)C(=O)[C@]1(C)CO [223 (W403)] | 35 | > 10000 | 59
13 | C[C@H](O)[C@@]1(C)C(=O)N2CCCc3nc(NCc4ccc(Oc5cnc(C(F)(F)F)nc5)nc4)nc(c32)N1C [240 (W428)] | 11.1 | > 10000 | 16.6
14 | CCn1nc(C(F)(F)F)c(C2CC2)c1Oc1ccc(CNc2nc3c4c(n2)N(C)[C@@](C)(CO)C(=O)N4CCC3)cn1 [233 (W419)] | 52 | > 10000 | –
15 | CN1c2nc(NCc3ccc(Oc4ccc(C(F)(F)F)nc4)nc3)nc3c2N(CCC3)C(=O)[C@]1(C)CO [133 (W377), (S)-5-(hydroxymethyl)-4,5-dimethyl-2-(((6-((6-(trifluoromethyl)pyridin-3-yl)oxo)pyridine-3-yl)methyl)amino)-4,5,9,10-tetrahydro-6H,8H-pyrido[3,2,1-de]pteridin-6-one] | 35 | > 10000 | 58
16 | CN1CC2(CC2)Cn2ccc3nc(NCc4cnn(Cc5ccc(C(F)(F)F)nc5)c4)nc1c32 [76 (W83)] | – | – | 67

Row | Compound | IC50 (Colo205) [nM] | IC50 (RKO) [nM] | IC50 [1] [nM]
17 | C[C@H]1Cn2ccc3nc(NCc4cnn(CCc5ccc(F)cc5)c4)nc(c32)N1C [66 (W43)] | – | – | 11
18 | CN1c2nc(NCc3ccc(Oc4cnc(C(F)(F)F)nc4)nc3)nc3c2N(CCC3)C(=O)[C@@]12CCOC2 [224 (W406)] | 63 | > 10000 | –
19 | CN1c2nc(NCc3ccc(Oc4cnc(C(F)(F)F)nc4)nc3)nc3c2N(CCC3)C(=O)[C@]12CCOC2 [225 (W407)] | 57 | > 10000 | –
20 | CN1c2nc(NCc3ccc(Oc4ccc(C(F)(F)F)nc4)nc3)nc3c2N(CCC3)C(=O)[C@]12CCOC2 [209 (W405)] | 30 | > 10000 | –
21 | CN1c2nc(NCc3ccc(Oc4cc(C(F)(F)F)nn4C)nc3)nc3c2N(CCC3)C(=O)[C@@H]1CO [222 (W402)] | 61 | > 10000 | –
22 | [2H]C([2H])([2H])n1nc(C(F)(F)F)cc1Oc1ccc(CNc2nc3c4c(n2)N(C)[C@@H](CO)C(=O)N4CCC3)cn1 [241 (W431)] | 11.5 | > 10000 | 9.3
23 | [2H]C([2H])([2H])N1c2nc(NCc3ccc(Oc4ccc(C(F)(F)F)nc4)nc3)nc3c2N(CCC3)C(=O)[C@]1(C)CO [220 (W398)] | 48 | > 10000 | –
24 | CN1c2nc(NCc3ccc(Oc4ccc(C(F)(F)F)nc4)nc3)nc3c2N(CCC3)C(=O)C12CCOC2 (stereo not drawn) [207 (W357)] | 84 | > 10000 | –
25 | [2H]C([2H])([2H])N1c2nc(NCc3cnn(Cc4ccc(C(F)(F)F)nc4)c3)nc3ccn(c23)C[C@@H]1C [73 (W85)] | – | – | 24
26 | CCOC[C@H]1C(=O)N2CCCc3nc(NCc4ccc(Oc5cnc(C(F)(F)F)nc5)nc4)nc(c32)N1C [155 (W347)] | 88 | > 10000 | 77
27 | CN1c2nc(NCc3ccc(Oc4ccc(C(F)(F)F)nc4)nc3)nc3c2N(CCC3)C(=O)[C@@H]1C1CCOCC1 [219 (W338)] | 10 | > 10000 | 31
28 | CN1c2nc(NCc3ccc(Oc4cnc(C(F)(F)F)nc4)nc3)nc3c2N(CCC3)C(=O)[C@@H]1C1CCOCC1 [218 (W339)] | 17 | > 10000 | 30
29 | C[C@H]1Cn2cc(F)c3nc(NCc4cnn(Cc5ccc(F)cc5)c4)nc(c32)N1C [64 (W23)] | – | – | 41
30 | CN1c2nc(NCc3ccc(Oc4cnc(C(F)(F)F)nc4)nc3)nc3c2N(CCC3)C(=O)[C@]1(C)CO [140 (W376), (S)-5-(hydroxymethyl)-4,5-dimethyl-2-(((6-((2-(trifluoromethyl)pyrimidin-5-yl)oxo)pyridine-3-Base)methyl)amino)-4,5,9,10-tetrahydro-6H,8H-pyrido[3,2,1-de]pteridin-6-one] | 49 | > 10000 | –
31 | FC1(F)C[C@H]2Cn3ccc4nc(NCc5cnn(Cc6ccc(C(F)(F)F)nc6)c5)nc(c43)N2C1 [69 (W50)] | – | – | 21
